Measured values: article PMC9171722, “An Enzyme with High Catalytic Proficiency Utilizes Distal Site Substrate Binding Energy to Stabilize the Closed State but at the Expense of Substrate Inhibition” (ACS Catalysis, 2022)

Tests used:
[1] = target: T1, β-phosphoglucomutase (βPGM WT) (Lactococcus lactis, UniProt P71447); parameters: gene pgmB
[2] = target: T2, β-phosphoglucomutase (βPGM R49K) (Lactococcus lactis, UniProt P71447, R49K); assay: enzyme kinetics (kcat/Km), G6PDH coupled assay; […] NMR time course; type: biochemical
T2 construct: gene pgmB; full length

[3] = target: T3, β-phosphoglucomutase (βPGM R49A) (Lactococcus lactis, UniProt P71447, R49A); assay: as above; type: biochemical
T3 construct: gene pgmB; full length

[4] = target: T1, β-phosphoglucomutase (βPGM WT); assay: as above; type: biochemical; parameters: gene pgmB; full length

Row | SMILES | crystal structure (1.8 Å), open conformation [1] | enzyme kinetics (kcat/Km), G6PDH coupled assay; 31P NMR time course [2] | enzyme kinetics (kcat/Km), G6PDH coupled assay; 31P NMR time course [3] | enzyme kinetics (kcat/Km), G6PDH coupled assay; 31P NMR time course [4]
1 | O=P(O)(O)O [Pi, phosphate] | a phosphate anion coordinated in the distal site by the guanidinium group of R49 | – | – | –
2 | O=P(O)(O)O[C@@H]1O[C@H](CO)[C@@H](O)[C@H](O)[C@H]1O [βG1P, β-glucose 1-phosphate] | – | 0.05 s^–1·μM^–1 | 0.02 s^–1·μM^–1 | 0.29 s^–1·μM^–1
